Test results taken from patent US20100074884A1, “INHIBITION OF NEURONAL DAMAGE” (DUSKA SCIENTIFIC CO., priority 2005, published 2010).

What was measured:
RGC light response = assay: Extracellular electrophysiological recordings in the optic tract, RGC light response after IOP transient; assay type: in vivo, rat
Method: Extracellular electrophysiological recordings: Experimental procedures for extracellular electrophysiological recordings are as described (Caleo et al. (2003) J. Neurosci. 23(1):287-296.). Briefly, rats aged between P25 and P30 were anesthetized with urethane (20% solution in saline; 0.7 ml/100 g of body weight, i.p.; Sigma) and placed in a stereotaxic frame. Both eyes were fixed by means of adjustable metal rings surrounding the external portion of the eye bulb. Body temperature was continuously monitored and maintained at 37° C. by a thermostat-controlled electric blanket. […]
Experiments were conducted to determine (1) whether intraocular injection of apyrase had any deleterious effects on RGC firing activity and light response, and (2) whether intraocular injection of apyrase had any effect on RGC light response recovery following a transient IOP elevation in vivo. Multi-unit spike activity evoked by a light flash was recorded in the optic tract at five minute intervals before and after an IOP pulse at 90 mmHg for 1 minute. […] Quantifying response as the average firing rate in the interval 0-2 seconds after flash onset, the average maximal response decrement was 80±16%; N=15, and the average time needed to recover at least 85% of the initial response was 32±4 minutes after the IOP spike. […]

RGCs [1] = assay: Pressure-induced RGC damage in isolated rat retinas (pressure controlled incubation, imaging of living RGCs); assay type: cell-based; details: for signs of pressure induced RGC damage: 7×90 (7 one-minute pulses at 90 mm Hg, then 1 hour at 12 mm Hg), 30 U/ml apyrase, 300 μM oATP or 0.5 μM BBG
Method: Pressure controlled incubation: A free-standing bioreactor chamber was used for incubation of living retinas (e.g., rat retinas) in artificial cerebrospinal fluid (ACFS; Stacy et al. (2003) J. Comp. Neurol. 456:154-166) under controlled temperature (33±0.5° C.; pH 7.4±0.1), and hydrostatic pressure conditions (10-90 mm Hg, resolution 2 mm Hg; Previti, et al. (2002) IEEE-EMBS Special Topic conference on Molecular, Cellular and Tissue Engineering, 1:157-158). Rat retinas were allowed to stabilize at 12 mm Hg for 5 minutes, and 1 minute pressure increments were applied, reaching a peak value in less than 20 seconds. Consecutive pressure transients were separated by 1 minute at 12 mm Hg. Hydrostatic pressure and pH were regulated by electronically controlled air/CO2 admission in the incubator chamber.
Imaging living RGCs: Experiments were performed on Long Evans rats according to the ARVO and national regulation on animal experimentation. All chemicals were obtained from Sigma (St. Louis, Mo.) unless otherwise specified.
(§1) Adult animals were decapitated and the retinas quickly dissected, flattened onto nitrocellulose filters, and maintained in oxygenated ACSF. Individual RGCs were labeled by shooting 1.3 μm tungsten particles coated with Oregon Green 488 conjugated dextran (Molecular Probes, Inc., Eugene, Oreg.) into the retina using a gene gun (Bio-Rad Laboratories, Hercules, Calif.; Kettunen, et al. (2002) J. Neurosci. Methods 119:37-43). Individual RGCs were imaged by placing the retinas in oxygenated ACSF within a custom-made 4 ml observation chamber on the stage of a Zeiss Axioplan fluorescence microscope equipped with a black and white CCD camera (Chroma DTA, Pisa, Italy). Observations were performed at room temperature (25-28° C.). A 40× Olympus immersion objective (N.A. 0.80) was used and excitation light was kept below 10% of its maximum intensity. Less than 5 RGCs per retina were analyzed to minimize light exposure. Loss of membrane integrity was assessed by adding 1.5 μM PI to the ACSF for 1 minute. Exposure of phospatidylserine on the outer membrane leaflet was evidenced by a 20 minute incubation in ACSF containing 3 μg/ml Cy3-Annexin V. In some experiments, RGCs were preincubated with oxidized-ATP (oATP) for 2 hours or with Brilliant BlueG (BBG) for 30 minutes prior to imaging.
RGC were incubated with the following agents: 30 U/ml apyrase (an enzyme that degrades extracellular ATP; North, supra); 300 μM oATP (an irreversible blocker of P2X receptors; North, supra); or 0.5 μM BBG (a selective and reversible inhibitor of rat P2X7 receptors; North, supra).

RGCs [2] = assay: Pressure transients in vivo, PI staining of cells in the ganglion cell layer; set-up: species or system rat; details: apyrase 30 U/ml intraocularly 5 minutes before pressure; 2 minutes at 50 mm Hg; retinas isolated after one hour
Method: Pressure transients in vivo: Adult Long Evans rats were deeply anaesthetized by intraperitoneal injection with Avertine (10 ml/kg body weight, 3.3% tri-bromo-ethanol, 2% tertiary amyl-alcohol in saline) and their right eyes were incannulated with a 30 Gauge needle connected to a pressure apparatus, which was a column of ACSF held at appropriate height. Eye pressure was increased to 50 mm Hg for 2 minutes by switching on the connection between the needle and the column of ACSF. A piezo-resistive pressure sensor (RS Electronics) controlled pressure values and line tightness. […] After pressure application, the animals were returned to their cages for recovery. Retinas were isolated after one hour. Control eyes were incannulated, but no pressure transient was applied. To analyze the effects of blocking eATP in vivo, 2 μl apyrase (30 U/ml intraocular concentration) were injected intraocularly 5 minutes before pressure application. To evaluate cell damage, PI labeled cells were imaged across the retinal area in 10 evenly spaced (370×250 μm^2) sample fields per retina. This dye permits assessment of membrane integrity, as cells with reduced membrane integrity are permeable to and become stained with the dyes. Retina dissection, histological and immunocytochemical treatments for long term analysis were performed as described (Galli-Resta et al. (1997) J. Neurosci. 17:7831-7838). […]

RGCs [3] = assay: Prevention of ATP-induced RGC damage in isolated rat retinas by P2X blockers; assay type: cell-based; details: 2 hour preincubation in ACSF containing 300 μM oATP or 0.5 μM BBG
Text: as §1, with “In some experiments, RGCs were preincubated with oxidized-ATP (oATP) for 2 hours or with Brilliant BlueG (BBG) for 30 minutes prior to imaging.” left out
Incubation of isolated rat retinas in 1 mM ATP induced the same effects obtained with repeated pressure increments, causing cell blebbing and uptake of PI in all the RGCs tested (35/35 tested) within 1 hour, except in α-type RGCs (0/15). […]

RGCs [4] = assay: Application of ATP or P2X7 agonist to isolated rat retinas, RGC damage; assay type: cell-based
Text: as §1
Incubation of isolated rat retinas in 1 mM ATP induced the same effects obtained with repeated pressure increments, causing cell blebbing and uptake of PI in all the RGCs tested (35/35 tested) within 1 hour, except in α-type RGCs (0/15). The same effects were obtained applying the potent P2X7 receptor agonist 2′,3′-benzoyl-4-benzoyl-ATP (BzATP; 0.1 mM; 10/10 non-α-RGCs).

[5] = two hours after ATP application

For apyrase, the “spike activity before pressure application” value (RGC light response; apyrase 30 U/ml intraocularly) was “not significantly altering”, the “average response recovery-time (at least 85% of initial response)” value (RGC light response; apyrase 30 U/ml intraocularly 1-3 hours before IOP pulse at 90 mmHg for 1 minute, N=8) was 11.2 ± 2.6 min and the “signs of pressure induced RGC damage” value (RGCs [1]) was “prevented all signs of pressure induced RGC damage”. The “blebbing or permeability to PI when pressure applied” value (RGCs [1]; in the presence of apyrase 30 U/ml) was “no blebbing or permeability to PI was observed” and the “pressure-induced RGC damage in vivo (PI staining)” value (RGCs [2]) was “totally prevented”.

`CCOc1ccc(Nc2ccc(/C(=C3C=C/C(=[N+](/CC)Cc4cccc(S(=O)(=O)[O-])c4)C=C/3C)c3ccc(N(CC)Cc4cccc(S(=O)(=O)O)c4)cc3C)cc2)cc1` [BBG, Brilliant BlueG] was tested, and the “signs of pressure induced RGC damage” value (RGCs [1]) was “prevented all signs of pressure induced RGC damage” and the “ATP-induced RGC damage, damaged/tested non-α-RGCs” value (RGCs [3]) was 0/15.

For `Nc1ncnc2c1ncn2[C@@H]1O[C@H](COP(=O)(O)OP(=O)(O)OP(=O)(O)O)[C@@H](OC(=O)c2ccc(C(=O)c3ccccc3)cc2)[C@H]1O` [BzATP, 2′,3′-benzoyl-4-benzoyl-ATP], the “cell blebbing and uptake of PI, affected/tested non-α-RGCs” value (RGCs [4]; 0.1 mM BzATP) was 10/10.

For `Nc1ncnc2c1ncn2[C@@H](C=O)O[C@@H](C=O)COP(=O)(O)OP(=O)(O)OP(=O)(O)O` [oATP, oxidized-ATP], the “signs of pressure induced RGC damage” value (RGCs [1]) was “prevented all signs of pressure induced RGC damage” and the “ATP-induced RGC damage, damaged/tested non-α-RGCs” value (RGCs [3]) was 0/20.

In the case of `Nc1ncnc2c1ncn2[C@@H]1O[C@H](COP(=O)(O)OP(=O)(O)OP(=O)(O)O)[C@@H](O)[C@H]1O` [ATP, adenosine 5′-triphosphate], the “cell blebbing and uptake of PI, affected/tested RGCs” value (RGCs [4]; 1 mM ATP, within 1 hour, RGCs other than α-type) is reported as 35/35, the “cell blebbing and uptake of PI, affected/tested α-type RGCs” value (RGCs [4]; 1 mM ATP, within 1 hour, α-type RGCs) is reported as 0/15 and the “cell soma shrinkage or fragmentation, RGCs” value (RGCs [4]; [5]) is reported as 10/10. For the same compound, the “phosphatidylserine exposure on the external membrane (Annexin V binding), RGCs” value (RGCs [4]; [5]) was 7/7.
